Like-named read-outs stand apart in the source and are kept apart here. Bridge positions count the residues as written; N and C are the ends. Peptide text beside a SMILES is read from it.

This assay has as its target T1, human GRP78 (Homo sapiens, UniProt P11021).
T1 construct: The full length human GRP78 protein recombinantly produced in Escherichia coli; 6xHis (inferred from capture on nickel-NTA chip); purchased Abcam (Cambridge, UK); host or cells: Escherichia coli
Nature of the assay: biochemical. The format is binding.

T1 sequence (P11021 19-654): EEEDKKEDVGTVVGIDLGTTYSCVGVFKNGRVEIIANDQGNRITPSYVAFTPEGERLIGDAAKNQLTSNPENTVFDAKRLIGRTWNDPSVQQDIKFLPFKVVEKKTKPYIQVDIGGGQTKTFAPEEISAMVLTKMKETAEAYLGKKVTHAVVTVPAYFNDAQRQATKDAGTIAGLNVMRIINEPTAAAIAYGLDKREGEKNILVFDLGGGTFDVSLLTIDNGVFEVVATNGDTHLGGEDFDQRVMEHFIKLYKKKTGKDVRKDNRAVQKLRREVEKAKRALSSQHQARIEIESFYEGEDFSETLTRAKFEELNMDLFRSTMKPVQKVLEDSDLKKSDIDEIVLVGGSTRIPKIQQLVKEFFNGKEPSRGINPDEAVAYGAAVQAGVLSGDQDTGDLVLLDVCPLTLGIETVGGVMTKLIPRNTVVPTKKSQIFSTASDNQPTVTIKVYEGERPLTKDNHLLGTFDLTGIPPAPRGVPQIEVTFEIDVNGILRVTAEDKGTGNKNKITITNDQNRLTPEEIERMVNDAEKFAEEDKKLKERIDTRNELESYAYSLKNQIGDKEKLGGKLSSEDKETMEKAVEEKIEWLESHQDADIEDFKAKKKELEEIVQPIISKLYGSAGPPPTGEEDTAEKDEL

`CC(C)C[C@@H]1NC(=O)[C@H](C)NC(=O)[C@H](C(C)C)NC(=O)[C@H]([C@@H](C)O)NC(=O)[C@@H](N)CSSC[C@@H](C(N)=O)NC(=O)[C@H](C(C)C)NC(=O)[C@H](CCCNC(=N)N)NC(=O)[C@H](C(C)C)NC(=O)[C@H](Cc2ccc(O)cc2)NC(=O)CNC(=O)CNC(=O)[C@@H]2CCCN2C1=O` [Pep42, reference compound] (H-CTVALPGGYVRVC-NH2; disulfide 1-13): under “affinity of binding to GRP78”, the Kd was 3.4 mM. The kon (read-out: Ka1 (association rate constant 1)) was 160 M⁻¹ s⁻¹. Moreover, the koff (read-out: Kd1 (dissociation rate constant 1)) was 0.678 s⁻¹ and the koff (read-out: Kd2 (dissociation rate constant 2)) turned out to be 0.0116 s⁻¹.

For orientation: Kd means a measure of binding affinity in units of concentration.

The record behind these values is paper PMC11497264 (Chembiochem, 2024).
